Our source for the GI50 and TGI values is PubChem BioAssay (NCI).

“And” between values parts separate entries of the source, which are not always exact repeats. Equal entries are not always repeated.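 Dose response: 5 concentrations. Exposure: 48 h. Format: 96-well plates. Endpoint: linear interpolation; highest concentration if not reached. GI50 marks 50% less growth. TGI: concentration producing complete growth inhibition.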

Test systems include COLO 205 colon; SF-295 CNS; CAKI-1 renal; SR leukemia; NCI-H226 lung; HCT-116 colon; SW-620 colon; HOP-92 NSCLC; UO-31 renal; TK-10 renal.
Test in all cases: DTP human tumour cell line panel, 48 h

What is called GI50 is the concentration giving 50% growth inhibition. A word on the TGI: it is the concentration giving total growth inhibition. Lower therefore signals more potent growth arrest. As for `O=c1cc(NC2CCN(CCCc3ccccc3)CC2)c2cc(Cl)ccc2o1`, the GI50 in the assay on COLO 205 colon is 9.98 µM; in the assay with SF-295 CNS, 15.1 µM; in the assay on CAKI-1 renal, 12.4 µM; with SR leukemia, 6.81 µM; with NCI-H226 lung, 15.6 µM; with HCT-116 colon, 4.02 µM. The GI50 in the assay with SW-620 colon was 15 µM; with HOP-92 NSCLC it was 11.9 µM; with UO-31 renal it was 4.39 µM; with TK-10 renal it was 13.4 µM. The TGI with COLO 205 colon worked out at 23.2 µM; with SF-295 CNS, 29.9 µM; in the assay with CAKI-1 renal it was 25.6 µM; in the assay with SR leukemia, 28.3 µM; in the assay on NCI-H226 lung, 39.6 µM; with HCT-116 colon it was 16.5 µM. Besides, the TGI with SW-620 colon is 30.5 µM; in the assay with HOP-92 NSCLC it was 27.7 µM; in the assay on UO-31 renal, 17.8 µM; in the assay on TK-10 renal it was 26.6 µM.

As for `Nc1nc(F)nc2c1ncn2C1OC(CO)C(O)C1O` (stereo not given), the GI50 was 27.8 µM with COLO 205 colon; 6.25 µM in the assay on CAKI-1 renal; greater than 68.9 µM with SR leukemia; 19.4 µM with HCT-116 colon; 60.2 µM in the assay on SW-620 colon; 14 µM in the assay with HOP-92 NSCLC. Also, the GI50 with UO-31 renal was 5.1 µM. The TGI in the assay on COLO 205 colon is greater than 100 µM; with SF-295 CNS it was greater than 100 µM; in the assay on CAKI-1 renal, greater than 96.2 µM; with SR leukemia it was greater than 100 µM; with NCI-H226 lung, greater than 100 µM; with HCT-116 colon, greater than 100 µM. The total growth inhibition concentration (TGI) is greater than 100 µM in the assay on SW-620 colon; > 100 µM and 97.6 µM in the assay with HOP-92 NSCLC; greater than 100 µM with UO-31 renal; greater than 100 µM with TK-10 renal.

With `CN(C)CCN1C(=O)c2ccc3c4c(ccc(c24)C1=O)C(=O)N(CCN=C=S)C3=O`, the GI50 is 0.0254 µM in the assay on COLO 205 colon; 0.122 µM in the assay with SF-295 CNS; 0.0448 µM in the assay with CAKI-1 renal; less than 0.0172 µM with SR leukemia; 0.1 µM with NCI-H226 lung; 0.027 µM in the assay with HCT-116 colon. In addition, the GI50 in the assay with SW-620 colon is 0.0269 µM; in the assay with HOP-92 NSCLC, 0.0262 µM; with UO-31 renal it was 0.0281 µM; in the assay with TK-10 renal, 0.0218 µM. The TGI in the assay on COLO 205 colon was 0.0922 µM; in the assay with SF-295 CNS, 0.513 µM; in the assay on CAKI-1 renal it was 0.785 µM; with NCI-H226 lung, 0.325 µM; with HCT-116 colon, 0.134 µM; in the assay with SW-620 colon, 0.155 µM. The TGI with HOP-92 NSCLC was found to be 0.174 µM; with UO-31 renal it was 0.157 µM; in the assay with TK-10 renal it was 0.109 µM.

Turning to `ClCC[N+]12CC[N+](CCCl)(CC1)C2`, the TGI in the assay with COLO 205 colon, with SF-295 CNS, in the assay on CAKI-1 renal, in the assay with SR leukemia, in the assay with NCI-H226 lung and in the assay on HCT-116 colon was greater than 100 µM throughout. Further, the TGI in the assay with SW-620 colon, with HOP-92 NSCLC, in the assay with UO-31 renal and in the assay with TK-10 renal was greater than 100 µM throughout.

Turning to `O=c1cccc(C#CC#CC2=CCCCC2)o1`, the GI50 in the assay on COLO 205 colon is 4.58 µM; with SF-295 CNS it was 9.04 µM; in the assay with CAKI-1 renal, 6.48 µM; in the assay on SR leukemia, 0.0307 µM; with NCI-H226 lung, 6.87 µM; in the assay on HCT-116 colon it was 1.16 µM. The GI50 was 3.4 µM in the assay on SW-620 colon, 3.99 µM with UO-31 renal and 8.69 µM in the assay with TK-10 renal. Also, the concentration for total growth inhibition (TGI) in the assay with COLO 205 colon was found to be 13.5 µM; with SF-295 CNS it was 16.4 µM; with CAKI-1 renal, 10.3 µM; in the assay on SR leukemia, 23.4 µM; in the assay on NCI-H226 lung it was 14.6 µM; in the assay with HCT-116 colon, 3.67 µM. In addition, the total growth inhibition concentration (TGI) in the assay with SW-620 colon was 18.2 µM; in the assay on HOP-92 NSCLC, greater than 23 µM; in the assay with UO-31 renal, 11 µM; in the assay with TK-10 renal it was 14.2 µM.

Consider `C=CCc1ccc(Oc2cc(CC=C)c3c(c2O)O[C@@H](CO)[C@H]3c2ccc(O)c(-c3cc(CC=C)ccc3O)c2)cc1`, for which the total growth inhibition concentration (TGI) in the assay on COLO 205 colon was greater than 100 µM; with SF-295 CNS, greater than 100 µM; in the assay on CAKI-1 renal, greater than 100 µM; in the assay with SR leukemia it was 46.9 µM; in the assay on NCI-H226 lung, greater than 100 µM; with HCT-116 colon it was greater than 100 µM. In addition, the TGI with SW-620 colon, in the assay with HOP-92 NSCLC, in the assay with UO-31 renal and in the assay on TK-10 renal was greater than 100 µM throughout.

Take `O=S(=O)(Nc1cc(Sc2cccc3cccnc23)c(O)c2ccccc12)c1ccccc1`: the GI50 in the assay with COLO 205 colon is 1.71 µM; in the assay with SF-295 CNS, 2.84 µM; in the assay with CAKI-1 renal, 1.97 µM; in the assay with SR leukemia, 0.426 µM; in the assay on NCI-H226 lung it was 2.45 µM; with HCT-116 colon it was 0.555 µM. Besides, the GI50 was 1.04 µM in the assay with SW-620 colon, 2.61 µM in the assay with HOP-92 NSCLC, 0.734 µM in the assay with UO-31 renal and 5.08 µM with TK-10 renal. The TGI was 3.7 µM with COLO 205 colon; 15 µM in the assay with SF-295 CNS; 10.1 µM in the assay with CAKI-1 renal; 17.2 µM in the assay with SR leukemia; 25.4 µM in the assay with NCI-H226 lung; 2.8 µM with HCT-116 colon. For the same compound, the TGI with SW-620 colon turned out to be 11.6 µM; in the assay with HOP-92 NSCLC, 7.38 µM; in the assay with UO-31 renal, 4.76 µM; with TK-10 renal, 18.3 µM.

For the compound `COc1cccc2c(=O)c3c(sc12)c(N1CCNCC1)nc1ccccc13`, the GI50 was 2.07 µM in the assay with COLO 205 colon; 1.82 µM with SF-295 CNS; 1.64 µM in the assay with CAKI-1 renal; 0.622 µM in the assay on SR leukemia; 1.58 µM in the assay with NCI-H226 lung; 1.55 µM in the assay on HCT-116 colon. The GI50 in the assay on SW-620 colon was 1.49 µM; in the assay with HOP-92 NSCLC it was 1.24 µM; with UO-31 renal, 1.07 µM; in the assay with TK-10 renal, 1.85 µM. Also, the TGI was 4.72 µM in the assay on COLO 205 colon; 3.37 µM in the assay on SF-295 CNS; 3.01 µM in the assay with CAKI-1 renal; greater than 100 µM in the assay with SR leukemia; 3.18 µM in the assay with NCI-H226 lung; 3.28 µM in the assay with HCT-116 colon. Further, the total growth inhibition concentration (TGI) with SW-620 colon came to 3.09 µM; with HOP-92 NSCLC, 2.73 µM; in the assay on UO-31 renal it was 2.32 µM; in the assay on TK-10 renal, 3.44 µM.

Regarding `C/C(N=NC(=S)N(C)C)=C1\C=CC=CN1O`, the TGI with COLO 205 colon, in the assay with SF-295 CNS, in the assay on CAKI-1 renal, with SR leukemia, in the assay on NCI-H226 lung and with HCT-116 colon was greater than 100 µM in each case. Moreover, the total growth inhibition concentration (TGI) in the assay on SW-620 colon was greater than 100 µM; in the assay with HOP-92 NSCLC, greater than 100 µM; in the assay on UO-31 renal it was greater than 97.4 µM; in the assay on TK-10 renal, greater than 100 µM.
